Assay results taken from patent publication US9079974B2, “GH-RH analogs with potent agonistic effects” (The University of Miami, priority 2011, dated 2015).
Square brackets hold non-standard residues; d marks the D form. Peptide text beside a SMILES is read from it. * marks the point of attachment. Phe(F5) = N[C@@H](Cc1c(F)c(F)c(F)c(F)c1F)C(=O)O; NMeY = CN[C@@H](Cc1ccc(O)cc1)C(=O)O; Agmatine = N=C(N)NCCCCN*; Nle = CCCC[C@H](N)C(=O)O; Orn = NCCC[C@H](N)C(=O)O; Abu = CC[C@H](N)C(=O)O

Molecular target: T1, GHRH receptor (Homo sapiens, UniProt Q02643)
T1 construct: Normal human pituitaries were purchased from the National Hormone and Peptide Program; tissue National Hormone and Peptide Program (A. F. Parlow); host or cells: normal human pituitary, membrane fraction
T1 sequence (Q02643 23-423): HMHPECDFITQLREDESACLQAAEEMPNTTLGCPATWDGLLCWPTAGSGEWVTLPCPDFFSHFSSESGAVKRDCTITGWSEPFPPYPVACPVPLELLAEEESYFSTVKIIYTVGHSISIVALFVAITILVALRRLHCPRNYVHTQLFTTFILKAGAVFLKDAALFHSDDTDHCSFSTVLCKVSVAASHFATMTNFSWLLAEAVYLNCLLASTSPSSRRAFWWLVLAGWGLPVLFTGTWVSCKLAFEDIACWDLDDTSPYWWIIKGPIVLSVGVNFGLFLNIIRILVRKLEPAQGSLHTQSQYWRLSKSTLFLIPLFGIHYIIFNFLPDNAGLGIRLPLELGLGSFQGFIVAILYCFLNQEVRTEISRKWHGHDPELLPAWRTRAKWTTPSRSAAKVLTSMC
Assay: GHRH receptor binding, 125I-labeled JV-1-42 ligand competition, human pituitary membrane homogenates (Table 7)
Conditions: 125I-labeled JV-1-42, human pituitary membranes
Protocol: Preparation of human pituitary membrane fraction and receptor binding of GHRH agonists were performed as previously described, by using a sensitive in vitro ligand competition assay based on binding of ^125I-labeled JV-1-42 to human pituitary membrane homogenates. Normal human pituitaries were purchased from the National Hormone and Peptide Program (A. F. Parlow, Los Angeles, County Harbor-UCLA Medical Center, Torrance, Calif.).

Row | SMILES | IC50 [nM]
1 | CCCC[C@H](NC(=O)[C@@H](NC(=O)[C@H](CC(=O)O)NC(=O)[C@H](CCC(N)=O)NC(=O)[C@H](CC(C)C)NC(=O)[C@H](CC(C)C)NC(=O)[C@H](CCCN)NC(=O)[C@H](CCCNC(=N)N)NC(=O)[C@H](C)NC(=O)[C@H](CO)NC(=O)[C@H](CC(C)C)NC(=O)[C@H](CCC(N)=O)NC(=O)[C@H](CC)NC(=O)[C@H](CC(C)C)NC(=O)[C@@H](NC(=O)[C@H](CCCN)NC(=O)[C@H](CCCNC(=N)N)NC(=O)[C@H](Cc1ccc(O)cc1)NC(=O)[C@H](CO)NC(=O)[C@H](CC(N)=O)NC(=O)[C@@H](NC(=O)[C@H](Cc1c(F)c(F)c(F)c(F)c1F)NC(=O)[C@@H](NC(=O)[C@H](C)NC(=O)[C@H](CC(=O)O)NC(=O)[C@@H](C)NC(=O)[C@H](Cc1ccc(O)cc1)NC)[C@@H](C)CC)[C@@H](C)O)C(C)C)[C@@H](C)CC)C(=O)N[C@@H](CC(=O)O)C(=O)NCCCCNC(=N)N [Peptide P-20359, [N—Me-Tyr^1, D-Ala^2, Fpa5^6, Orn^12, Abu^15, Orn^21, Nle^27, Asp^28, Agm^29]hGH-RH(1-29)] (H-[NMeY][dA]DAI[Phe(F5)]TNSYR[Orn]VL[Abu]QLSAR[Orn]LLQDI[Nle]D-Agmatine) | 3.05
2 | CCCC[C@H](NC(=O)[C@@H](NC(=O)[C@H](CC(=O)O)NC(=O)[C@H](CCC(N)=O)NC(=O)[C@H](CC(C)C)NC(=O)[C@H](CC(C)C)NC(=O)[C@H](CCCN)NC(=O)[C@H](CCCNC(=N)N)NC(=O)[C@H](C)NC(=O)[C@H](CO)NC(=O)[C@H](CC(C)C)NC(=O)[C@H](CCC(N)=O)NC(=O)[C@H](CC)NC(=O)[C@H](CC(C)C)NC(=O)[C@@H](NC(=O)[C@H](CCCN)NC(=O)[C@H](CCCNC(=N)N)NC(=O)[C@H](Cc1ccc(O)cc1)NC(=O)[C@H](CO)NC(=O)[C@H](CCC(N)=O)NC(=O)[C@@H](NC(=O)[C@H](Cc1ccccc1)NC(=O)[C@@H](NC(=O)[C@H](C)NC(=O)[C@H](CC(=O)O)NC(=O)[C@@H](C)NC(=O)[C@H](Cc1ccc(O)cc1)NC)[C@@H](C)CC)[C@@H](C)O)C(C)C)[C@@H](C)CC)C(=O)N[C@@H](CC(=O)O)C(=O)NCCCCNC(=N)N [Peptide P-20361, [N—Me-Tyr^1, D-Ala^2, Gln^8, Orn^12, Abu^15, Orn^21, Nle^27, Asp^28, Agm^29]hGH-RH(1-29)] (H-[NMeY][dA]DAIFTQSYR[Orn]VL[Abu]QLSAR[Orn]LLQDI[Nle]D-Agmatine) | 0.82
3 | CCCC[C@H](NC(=O)[C@@H](NC(=O)[C@H](CC(=O)O)NC(=O)[C@H](CCC(N)=O)NC(=O)[C@H](CC(C)C)NC(=O)[C@H](CC(C)C)NC(=O)[C@H](CCCN)NC(=O)[C@H](CCCNC(=N)N)NC(=O)[C@H](C)NC(=O)[C@H](CO)NC(=O)[C@H](CC(C)C)NC(=O)[C@H](CCC(N)=O)NC(=O)[C@H](CC)NC(=O)[C@H](CC(C)C)NC(=O)[C@@H](NC(=O)[C@H](CCCN)NC(=O)[C@H](CCCNC(=N)N)NC(=O)[C@H](Cc1ccc(O)cc1)NC(=O)[C@H](CO)NC(=O)[C@H](CC(N)=O)NC(=O)[C@@H](NC(=O)[C@H](Cc1ccccc1)NC(=O)[C@@H](NC(=O)[C@H](C)NC(=O)[C@H](CC(=O)O)NC(=O)[C@@H](C)NC(=O)[C@H](Cc1ccc(O)cc1)NC)[C@@H](C)CC)[C@@H](C)O)C(C)C)[C@@H](C)CC)C(=O)N[C@@H](CC(=O)O)C(=O)NCCCCNC(=N)N [Peptide P-20367, [N—Me-Tyr^1, D-Ala^2, Orn^12, Abu^15, Orn^21, Nle^27, Asp^28, Agm^29]hGH-RH(1-29)] (H-[NMeY][dA]DAIFTNSYR[Orn]VL[Abu]QLSAR[Orn]LLQDI[Nle]D-Agmatine) | 1.7
